Test results taken from PMC12655351, “Synthesis and Anticancer Activity Evaluation of New 5-((5-Nitrofuran-2-yl)allylidene)-2-thioxo-4-thiazolidinones” (Pharmaceuticals, 2025).

Legend:
M14 = conditions: human, 48 h
[1] = system: reactive oxygen species in MCF-7 cells; experiment: H2DCFDA and DAPI double staining; type: cell-based, human; conditions: MCF-7, 1 and 5 μM, one hour
Method: (§1) The double staining method was applied to analyze novel compounds’ effects on the generation of reactive oxygen species. The first dye, H2DCFDA, after conversion to DCF, serves as an indicator of oxidative stress (green fluorescence), while the second one, known as DAPI, was applied to showcase nuclear genetic material of MCF-7 and MDA-MB-231 breast cancer cells (blue fluorescence). The concentrations of compounds were 1 and 5 μM for the MCF-7 cell line and 5 and 10 μM for the MDA-MB-231 cell line. The incubation time after treatment was one hour in both cell lines.
(§2) The influences of 2b, 12b, 14b, and doxorubicin (1 and 5 µM and 5 and 10 µM for MCF-7 and MDA-MB-231 cell lines, respectively) on the generation of reactive oxygen species (ROS) were analyzed. Cells were seeded in 6-well culture plates at 1 × 10^5 cells per well in 1 mL of medium and then treated with compounds for 1 h and then washed with PBS. Double staining was conducted with 20 µM 2′,7′-dichlorodihydrofluorescein diacetate (H2DCFDA) reagent (Thermo Fisher Scientific, Eugene, OR, USA), which is colorless, and is cleaved by intracellular esterases and oxidized to the highly fluorescent 2′,7′-dichlorofluorescein (DCF), and 10 µg/mL of the fluorescent dye 4′,6-diamidino-2-phenylindole (DAPI) (Sigma-Aldrich, St. Louis, MO, USA), which visualizes the nuclear DNA of cells. A Nikon ECLIPSE Ti fluorescence microscope (Nikon, Tokyo, Japan) was used to obtain results which were analyzed using ImageJ software 1.54k (Bethesda, MD, USA). The fluorescence intensity of the DCF reagent was evaluated relative to the control. The number of analyzed cells was above 100.

[2] = system: reactive oxygen species in MDA-MB-231 cells; experiment: H2DCFDA and DAPI double staining; type: cell-based, human; conditions: MDA-MB-231, 5 and 10 μM, one hour
Method: as §1, §2

[3] = system: cytochrome C in MDA-MB-231 cells; experiment: cytochrome C ELISA; type: cell-based, human; conditions: MDA-MB-231, 10 μM, 24 h
Method: (§3) The influence of the examined compounds on the level of cytochrome C, one of the crucial proteins of the intrinsic pathway of programmed cell death, was assessed. This protein is released into the cytoplasm from the mitochondrial intermembrane space as a result of the decrease in mitochondrial membrane potential. […] The most significant result was reported for compound 14b at a concentration of 5 μM in the MCF-7 cell line and 10 µM in the MDA-MB-231 cell line, where the concentration of cytochrome C was 9.54 ng/mL and 15.26 ng/mL, respectively (Figure 10).
(§4) Using a SimpleStep ELISA kit (Abcam, Cambridge, UK), we determined the levels of cytochrome C and caspase-3 in cells’ lysates with 2b, 12b, and 14b (1 and 5 μM for the MCF-7 cell line and 5 and 10 μM for the MDA-MB-231) and doxorubicin in concentrations of 1 and 5 μM for both lines after 24 h incubation. Assays were performed according to the manufacturer’s protocols.

[4] = system: cytochrome C in MCF-7 cells; experiment: cytochrome C ELISA; type: cell-based, human; conditions: MCF-7, 5 μM, 24 h
Method: as §3, §4

[5] = system: mitochondrial membrane potential (ΔΨm) of MCF-7 breast cancer cells; experiment: JC-1 flow cytometry; type: cell-based, human; conditions: 24 h
Method: (§5) This method involves marking cells with fully functional mitochondria with red fluorescence due to the accumulation of the dye in hyperpolarized mitochondrial membrane. In case of a damaged membrane, the dye decomposes into monomers, emitting green fluorescence. […] For MDA-MB-231 cells, the values were as follows: 4.25% for 5 μM and 20.95% for 10 μM concentration. The obtained results signify the compound’s capability to decrease mitochondrial potential on both cell lines at a higher concentration (Figure 6).
(§6) The mitochondrial membrane potential (ΔΨm) was analyzed by using the JC-1 MitoScreen kit (BD Biosciences, San Diego, CA, USA). The tested compounds and reference drug were used in 1 and 5 µM concentrations on the MCF-7 cell line and 5 and 10 µM on the MDA-MB-231 cell line. After 24 h of incubation with the tested compounds, the assay was performed as described in the literature. The assay was performed using a flow cytometer (BD FACSCanto II, Becton Dickinson Biosciences Systems, San Jose, CA, USA), and results were obtained using FACSDiva software (version 6.1.3, BD Biosciences Systems, San Jose, CA, USA).

[6] = system: mitochondrial membrane potential (ΔΨm) of MDA-MB-231 breast cancer cells; experiment: JC-1 flow cytometry; type: cell-based, human; conditions: 24 h
Method: as §5, §6

[7] = system: caspase-9 in MDA-MB-231 cells; experiment: FLICA caspase-9 flow cytometry; type: cell-based, human; conditions: MDA-MB-231, 24 h, concentration not given
Method: To further analyze the compounds’ effects on the intrinsic pathway of the process of programmed cell death, it was decided to assess the expression of initiator caspase-9 on MCF-7 and MDA-MB-231 cell lines after 24 h of treatment using the flow cytometry method. Caspase-9 is an initiator caspase that directly activates executive caspase-3; as such, it has a significant effect on apoptosis. […] For the MDA-MB-231 line, the results were even more prominent, with every tested compound and concentration displaying a notable increase in cells with active caspase-9.
To determine the effects of the novel compounds on the caspase-9 activity, the FLICA Caspase-9 Assay Kit was applied (ImmunoChemistry Technologies, Bloomington, MN, USA). MCF-7 and MDA-MB-231 cells were seeded on 6-well plates (5 × 10^5 cells per well) and incubated for 24 h. Next, they were treated with tested compounds 2b, 12b, and 14b in a concentration of 1 and 5 µM for the MCF-7 cell line and 5 and 10 µM for the MDA-MB-231 cell line and the reference drug, doxorubicin hydrochloride, in a concentration of 1 and 5 µM for both lines for 24 h. […] Prepared samples were evaluated by a BD FACSCanto II flow cytometer (Becton Dickinson Biosciences, San Jose, CA, USA). For each sample, 1 × 10^4 events were analyzed. […]

Compound	CC50 (M14) [µM]	generation of reactive oxygen species [1]	generation of reactive oxygen species [2]	concentration of cytochrome C [3] [ng/mL]	concentration of cytochrome C [4] [ng/mL]	Decreased Δψ (decrease in mitochondrial potential) ([5]; MCF-7, 1 μM) [%]	Decreased Δψ (decrease in mitochondrial potential) ([5]; MCF-7, 5 μM) [%]	Decreased Δψ (decrease in mitochondrial potential) ([6]; MDA-MB-231, 5 μM) [%]	Decreased Δψ (decrease in mitochondrial potential) ([6]; MDA-MB-231, 10 μM) [%]	cells with active caspase-9 [7] [%]
O=C(O)CCCCCN1C(=O)/C(=C/C=C/c2ccc([N+](=O)[O-])o2)SC1=S [14b, 6-((Z)-5-((E)-3-(5-nitrofuran-2-yl)allylidene)-4-oxo-2-thioxothiazolidin-3-yl)hexanoic acid]	3.23	highest generation of ROS	highest generation of ROS	15.26	9.54	8.75	20.25	4.25	20.95	–
CC(C(=O)O)N1C(=O)/C(=C/C=C/c2ccc([N+](=O)[O-])o2)SC1=S (stereo not shown) [2b, 2-((Z)-5-((E)-3-(5-Nitrofuran-2-yl)allylidene)-4-oxo-2-thioxothiazolidin-3-yl)propanoic acid]	–	–	–	–	–	–	–	–	–	83.95
